Target: Cytochrome P450 3A4 (Homo sapiens, UniProt P08684)
Assay: Inhibition of CYP3A4 in human liver microsomes using midazolam as substrate upto 100 uM incubated for 10 mins in presence of NADPH by LC-MS/MS analysis; call rule not given here
Assay type: ADME, Microsome

Cytochrome P450 3A4, sequence (P08684 whole entry): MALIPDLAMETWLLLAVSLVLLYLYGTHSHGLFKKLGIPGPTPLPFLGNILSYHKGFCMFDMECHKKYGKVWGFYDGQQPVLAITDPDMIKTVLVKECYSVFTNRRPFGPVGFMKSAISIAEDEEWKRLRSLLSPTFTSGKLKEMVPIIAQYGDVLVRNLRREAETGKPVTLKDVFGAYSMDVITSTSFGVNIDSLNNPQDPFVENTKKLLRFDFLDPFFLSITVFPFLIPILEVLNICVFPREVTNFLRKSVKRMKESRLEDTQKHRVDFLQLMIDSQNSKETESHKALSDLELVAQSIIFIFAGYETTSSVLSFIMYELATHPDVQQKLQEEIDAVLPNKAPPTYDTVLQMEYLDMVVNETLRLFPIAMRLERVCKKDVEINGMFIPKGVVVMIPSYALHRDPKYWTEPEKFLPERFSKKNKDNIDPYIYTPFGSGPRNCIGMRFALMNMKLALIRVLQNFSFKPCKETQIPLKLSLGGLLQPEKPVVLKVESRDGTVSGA

SMILES: CS(=O)(=O)c1ccc(-c2nc(C(=O)NCc3cn(-c4cc(Br)ccn4)nn3)cs2)cc1
- inhibition (INH): Not Active

From ChEMBL document CHEMBL5360655, “Design, Synthesis, and Biological Evaluation of Novel P2X7 Receptor Antagonists for the Treatment of Septic Acute Kidney Injury” (J Med Chem, 2023)
